Experimental data from paper PMC5785467 (Nature, 2018).

Target: T1, beetle ICMT (Tribolium castaneum, UniProt D6WJ77)
T1 sequence (D6WJ77 1-281): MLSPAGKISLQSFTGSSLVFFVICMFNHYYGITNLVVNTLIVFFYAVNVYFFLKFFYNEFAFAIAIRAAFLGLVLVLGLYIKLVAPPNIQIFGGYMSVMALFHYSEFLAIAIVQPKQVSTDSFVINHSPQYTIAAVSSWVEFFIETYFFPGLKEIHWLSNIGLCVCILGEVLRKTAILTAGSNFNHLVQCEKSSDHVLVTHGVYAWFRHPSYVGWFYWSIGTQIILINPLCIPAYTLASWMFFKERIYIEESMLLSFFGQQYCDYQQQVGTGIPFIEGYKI
Assay: X-ray crystal structure, […] Å
Format: binding
Details: complex with monobody MB-15, lipidic cubic phase; cofactor site

SMILES: Nc1ncnc2c1ncn2[C@@H]1O[C@H](CSCC[C@H](N)C(=O)O)[C@@H](O)[C@H]1O [AdoHcy]
- X-ray crystal structure, 2.3 Å: AdoHcy is encapsulated within a pocket that is formed by the M6–M7 connector
